Biological target: T1, estrogen receptor alpha (ESR1) in MCF7 breast cancer cells (Homo sapiens, UniProt P03372)
T1 sequence (P03372 1-595): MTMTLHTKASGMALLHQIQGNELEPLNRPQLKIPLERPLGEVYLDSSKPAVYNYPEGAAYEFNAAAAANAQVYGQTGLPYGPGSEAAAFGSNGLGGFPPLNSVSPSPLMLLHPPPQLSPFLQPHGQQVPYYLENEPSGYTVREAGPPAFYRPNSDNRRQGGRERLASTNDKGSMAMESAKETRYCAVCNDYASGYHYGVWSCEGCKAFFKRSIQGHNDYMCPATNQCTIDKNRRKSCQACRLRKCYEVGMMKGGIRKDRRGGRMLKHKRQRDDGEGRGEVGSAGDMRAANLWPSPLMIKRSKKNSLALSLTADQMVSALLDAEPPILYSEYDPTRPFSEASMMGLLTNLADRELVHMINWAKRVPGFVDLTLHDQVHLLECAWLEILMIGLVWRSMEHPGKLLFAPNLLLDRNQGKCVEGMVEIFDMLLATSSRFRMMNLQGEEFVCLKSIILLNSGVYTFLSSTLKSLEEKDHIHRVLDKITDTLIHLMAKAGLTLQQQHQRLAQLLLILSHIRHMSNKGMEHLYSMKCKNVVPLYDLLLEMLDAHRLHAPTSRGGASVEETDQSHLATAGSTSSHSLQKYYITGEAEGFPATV
Experiment: Breast Cancer Cell ERa High Content Fluorescence Imaging Degradation Assay (ER-alpha MCF7 HCS)
Type: cell-based
Design: endogenous in cells; host or cells: MCF7 breast cancer cells; key to ERalpha (WT) MCF7HCS (Sinf): % change in ERα level; DMSO = 0%, fulvestrant = 100% change
Settings: 4 hours, plateau of the maximal effect, DMSO and fulvestrant define 0% and 100% change in ESR1, Table 1a
Method: All of the exemplary Formula I, II, and III compounds in Tables 1a and 1b were made and characterized by LCMS [M+H]^+ (liquid chromatography mass spectroscopy) with detection of parent ion. All of the exemplary Formula I, II, and III compounds in Tables 1a and 1b were tested for binding to ERa (Estrogen Receptor alpha) and biological activity according to the assays, protocols, and procedures of Examples 901-907. ER-alpha MCF7 HCS Sinf (%) values in Tables 1a and 1b were measured by the Breast Cancer Cell ERa High Content Fluorescence Imaging Degradation Assay of Example 901. ER-alpha MCF7 HCS EC50 (μM) values in Tables 1a and 1b were measured by the in vitro cell proliferation assays described in Examples 902 and 903. The rat uterine wet weight assays of Examples 906 and 907 allow rapid determination of compound antagonist activity in an ER responsive tissue (immature rat uterus) while competing against the native ER ligand estradiol, i.e. antagonist mode (Ashby, J.; et al (1997) Regulatory toxicology and pharmacology: RTP, 25 (3):226-31). Exemplary Formula I, II, and III compounds in Tables 1a and 1b have the following structures, corresponding names (ChemBioDraw, Version 12.0.2, CambridgeSoft Corp., Cambridge Mass.), and biological activity. Where more than one name is associated with a Formula I, II, and III compound or intermediate, the chemical structure shall define the compound.
MCF7 breast cancer cells were seeded on day 1 at a density of 10,000 cells per well in 384 well poly-lysine coated tissue culture plate (Greiner # T-3101-4), in 50 μL/well RPMI (phenol red free), 10% FBS (Charcoal stripped), containing L-glutamine. On day 2, compounds were prepared at 2 compound source concentrations: 100 μM and 1 μM (ultimately to give 2 overlapping titration curves), in a Labcyte low dead volume plate, 10 μL/well, and 10 μL of DMSO in designated wells for backfill, and 5 μM Fulvestrant (control compound) in designated wells. Compounds and controls were dispensed using a Labcyte Echo acoustic dispenser to dispense compounds with a predefined serial dilution (1.8×, 10 point, in duplicate) and appropriate backfill and control compounds (final total volume transferred was 417.5 nL and compound dispense volume ranges from 2.5 nL to 417.5 nL; 0.84% DMSO (v/v) final), ultimately producing a concentration range from 0.05 nM to 835 nM. Cell plates were incubated at 37° C., for 4 hours. Fixation and permeabilization were carried out using a Biotek EL406 plate washer and dispenser as follows. Cells were fixed by addition of 15 μL of 16% paraformaldehyde (Electron Microscopy Sciences #15710-S) directly to the 50 μL cell culture medium in each well using the peristaltic pump 5 μL cassette on a Biotek EL406 (final concentration of formaldehyde was 3.7% w/v). Samples were incubated 30 minutes. Well contents was aspirated and 50 μL/well of Phosphate Buffered Saline (PBS) containing 0.5% w/v bovine serum albumen, 0.5% v/v Triton X-100 (Antibody Dilution Buffer) was added to each well. Samples were incubated for 30 minutes. Well contents were aspirated and washed 3 times with 100 μL/well of PBS. Immunofluorescence staining of estrogen receptor alpha (ESR1) was carried out using a Biotek EL406 plate washer and dispenser as follows. The well supernatant was aspirated from the wells and 25 μL/well of anti-ESR1 mAb (F10) (Santa Cruz sc-8002) diluted 1:1000 in Antibody Dilution Buffer was dispensed. Samples were incubated for 2 hours at room temperature. Samples were washed 4 times with 100 μL/well of PBS. 25 uL (microliters)/well of secondary antibody solution (Alexafluor 488 conjugate anti-mouse IgG (LifeTechnologies # A21202) diluted 1:1000 and Hoechst 33342 1 μg/ml diluted in Antibody Dilution Buffer) were dispensed into each well. Samples were incubated for 2 hours at room temperature. Samples were washed 3 times with 100 μL/well of PBS using a Biotek EL406. Quantitative fluorescence imaging of ESR1 was carried out using a Cellomics Arrayscan V (Thermo). […]

| ER-alpha MCF7HCS Sinf [%] | Compound |
| --- | --- |
| −88.6 | CC1Cc2c(c3ccccc3n2C)C(c2c(F)cc(OCCN3CC(CF)C3)cc2F)N1CC(C)(C)F (racemic) [Example 139, (±)-1-(2-6-difluoro-4-(2-(3-(fluoromethyl)azetidin-1-yl)ethoxy)phenyl)-2-(2-fluoro-2-methylpropyl)-3,5-dimethyl-2,3,4,5-tetrahydro-1H-pyrido[4,3-b] indole] |
| −94.5 | CC(C)C(=O)N1[C@H](c2c(F)cc(OCCN3CC(CF)C3)cc2F)c2oc3ccccc3c2C[C@H]1C (single isomer, unassigned) [Example 101] |
| −97.8 | C[C@H]1CN(CC(C)(C)F)[C@H](c2c(F)cc(OCCN3CC(CF)C3)cc2F)c2[nH]c3ccccc3c21 (single isomer, unassigned) [Example 107] |
| −92.4 | C[C@@H]1CN(CC(C)(C)F)[C@H](c2c(F)cc(OCCN3CC(CF)C3)cc2F)c2[nH]c3ccccc3c21 (single isomer, unassigned) [Example 108] |
| −74.6 | C[C@@H]1CN(CC(C)(C)F)[C@@H](c2c(F)cc(OCCN3CC(CF)C3)cc2F)c2[nH]c3ccccc3c21 (single isomer, unassigned) [Example 109] |
| −51 | C[C@H]1Cc2[nH]c3ccccc3c2[C@H](c2c(F)cc(OCCN3CC(CF)C3)cc2F)N1CC(C)(C)F (single isomer, unassigned) [Example 136] |
| −95.7 | C[C@@H]1Cc2[nH]c3ccccc3c2[C@@H](c2c(F)cc(OCCN3CC(CF)C3)cc2F)N1CC(F)(F)CO (single isomer, unassigned) [Example 147] |
| −79 | C[C@H]1Cc2[nH]c3ccccc3c2[C@H](c2c(F)cc(OCCN3CC(CF)C3)cc2F)N1CC(F)(F)CO (single isomer, unassigned) [Example 148] |

Second part, the molecule before the results:

| Compound | ER-alpha MCF7HCS Sinf [%] |
| --- | --- |
| CC(C)C(=O)N1[C@H](c2c(F)cc(OCCN3CC(CF)C3)cc2F)c2sc3ccccc3c2C[C@H]1C (relative stereo) [Example 102, 1-((1,3-trans)-1-(2,6-difluoro-4-(2-(3-(fluoromethyl)azetidin-1-yl)ethoxy)phenyl)-3-methyl-3,4-dihydrobenzo[4,5]thieno[2,3-c]pyridin-2(1H)-yl)-2-methylpropan-1-one] | −64.5 |
| C[C@@H]1Cc2[nH]c3ccccc3c2[C@@H](c2c(F)cc(OC3CN(CCCF)C3)cc2F)N1CC(F)(F)CO (relative stereo) [Example 144, trans-3-(1-(2,6-difluoro-4-(1-(3-fluoropropyl)azetidin-3-yloxy)phenyl)-3-methyl-3,4-dihydro-1H-pyrido[4,3-b]indol-2(5H)-yl)-2,2-difluoropropan-1-ol] | −98.8 |
| C[C@@H]1Cc2c([nH]c3ncccc23)[C@@H](c2c(F)cc(OC3CN(CCCF)C3)cc2F)N1CC(C)(C)F (single isomer, unassigned) [Example 120] | −88.0 |
| C[C@@H]1Cc2sc3ccccc3c2[C@H](c2ccc(OCCN3CC(CF)C3)cc2)N1CC(C)(C)F (single isomer, unassigned) [Example 130] | −76.8 |
| C[C@H]1Cc2[nH]c3ccccc3c2[C@H](c2c(F)cc(NC3CN(CCCF)C3)cc2F)N1CC(F)(F)CO (single isomer, unassigned) [Example 154] | −30 |
| C[C@@H]1Cc2[nH]c3ccccc3c2[C@@H](c2c(F)cc(NC3CN(CCCF)C3)cc2F)N1CC(F)(F)CO (single isomer, unassigned) [Example 155] | −97.4 |
| C[C@@H]1Cc2c(oc3ccccc23)[C@@H](c2c(F)cc(NC3CN(CCCF)C3)cc2F)N1CC(F)(F)CO (single isomer, unassigned) [Example 157] | −102 |
| C[C@H]1Cc2c(oc3ccccc23)[C@H](c2c(F)cc(NC3CN(CCCF)C3)cc2F)N1CC(F)(F)CO (single isomer, unassigned) [Example 158] | −88.8 |
| C[C@@H]1Cc2c(sc3ccccc23)[C@@H](c2c(F)cc(NC3CN(CCCF)C3)cc2F)N1CC(F)(F)CO (single isomer, unassigned) [Example 159] | −102 |
| C[C@H]1Cc2c(sc3ccccc23)[C@H](c2c(F)cc(NC3CN(CCCF)C3)cc2F)N1CC(F)(F)CO (single isomer, unassigned) [Example 160] | −96.9 |
| CC(C)(F)CN1CCCc2c([nH]c3ccccc23)[C@H]1c1c(F)cc(OCCN2CC(CF)C2)cc1F [Example 103, (R)-1-(2,6-difluoro-4-(2-(3-(fluoromethyl)azetidin-1-yl)ethoxy)phenyl)-2-(2-fluoro-2-methylpropyl)-1,2,3,4,5,10-hexahydroazepino[3,4-b]indole] | −96.7 |
| CC(C)(F)C(=O)N1CCCc2c([nH]c3ccccc23)[C@H]1c1c(F)cc(OCCN2CC(CF)C2)cc1F [Example 106, (R)-1-(1-(2,6-difluoro-4-(2-(3-(fluoromethyl)azetidin-1-yl)ethoxy)phenyl)-3,4,5,10-tetrahydroazepino[3,4-b]indol-2(1H)-yl)-2-fluoro-2-methylpropan-1-one] | −35 |

Same assay, conditions: 4 hours, plateau of the maximal effect, DMSO and fulvestrant define 0% and 100% change in ESR1, Table 1b

| ERalpha (WT) MCF7HCS (Sinf) | Compound |
| --- | --- |
| −96 | C[C@@H]1Cc2oc3ccccc3c2[C@@H](c2c(F)cc(OCCN3CC(CF)C3)cc2F)N1CC(C)(C)F (stereo in doubt) [Example 167, 1-(2,6-difluoro-4-(2-(3-(fluoromethyl)azetidin-1-yl)ethoxy)phenyl)-2-(2-fluoro-2-methylpropyl)-3-methyl-1,2,3,4-tetrahydrobenzofuro [3,2-c]pyridine] |
| −97 | C[C@H]1Cc2oc3ccccc3c2[C@H](c2c(F)cc(OCCN3CC(CF)C3)cc2F)N1CC(C)(C)F (stereo in doubt) [Example 168, 1-(2,6-difluoro-4-(2-(3-(fluoromethyl)azetidin-1-yl)ethoxy)phenyl)-2-(2-fluoro-2-methylpropyl)-3-methyl-1,2,3,4-tetrahydrobenzofuro [3,2-c]pyridine] |

Further lines, the molecule ahead of its results:

| Compound | ERalpha (WT) MCF7HCS (Sinf) |
| --- | --- |
| C[C@@H]1Cn2c(cc3ccccc32)[C@@H](c2c(F)cc([C@@H](O)C3CN(CCCF)C3)cc2F)N1CC(F)(F)CO (single isomer, unassigned) [Example 163] | −100 |
| C[C@@H]1Cn2c(cc3ccccc32)[C@@H](c2c(F)cc([C@H](O)C3CN(CCCF)C3)cc2F)N1CC(F)(F)CO (single isomer, unassigned) [Example 164] | −98.6 |

Source: patent US10654867B2 (Genentech, Inc., priority 2016, dated 2020)
